According to PMC6017319, “Potent GH20 N-Acetyl-β-D-hexosaminidase Inhibitors: N-Substituted 3-acetamido-4-amino-5-hydroxymethyl-cyclopentanediols” (Molecules : A Journal of Synthetic Chemistry and Natural …, 2018):
Where two headings read alike, the source gives them in different places.

Assays:
[1] = biological target: T1, human lysosomal N-acetyl-β-hexosaminidase A (Homo sapiens, UniProt P06865); experiment: Human N-acetyl-β-hexosaminidase A activity in fibroblast homogenate (4-MU N-acetyl-β-glucosaminide-6-sulfate substrate); type: biochemical; conditions: normal human skin fibroblast homogenate, pH 4.4, 37 °C, 60 min; read-out: IC50 with human lysosomal N-acetyl-β-D-hexosaminidase A
T1 construct: endogenous in cells; host or cells: human skin fibroblasts (wild type), cell homogenate
T1 sequence (P06865 89-529): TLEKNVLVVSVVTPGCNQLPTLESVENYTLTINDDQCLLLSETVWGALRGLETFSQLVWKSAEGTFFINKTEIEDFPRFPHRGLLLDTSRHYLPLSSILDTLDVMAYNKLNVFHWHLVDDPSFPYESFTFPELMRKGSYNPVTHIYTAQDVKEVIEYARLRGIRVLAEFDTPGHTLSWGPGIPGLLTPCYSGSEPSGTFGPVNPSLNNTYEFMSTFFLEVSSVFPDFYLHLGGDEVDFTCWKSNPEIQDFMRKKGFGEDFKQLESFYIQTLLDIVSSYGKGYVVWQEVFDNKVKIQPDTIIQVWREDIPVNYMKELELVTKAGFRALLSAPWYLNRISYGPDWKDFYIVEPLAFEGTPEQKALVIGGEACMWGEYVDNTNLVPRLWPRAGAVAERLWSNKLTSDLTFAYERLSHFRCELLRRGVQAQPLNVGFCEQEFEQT
T1 sequence (P07686 122-311 partner limits assumed): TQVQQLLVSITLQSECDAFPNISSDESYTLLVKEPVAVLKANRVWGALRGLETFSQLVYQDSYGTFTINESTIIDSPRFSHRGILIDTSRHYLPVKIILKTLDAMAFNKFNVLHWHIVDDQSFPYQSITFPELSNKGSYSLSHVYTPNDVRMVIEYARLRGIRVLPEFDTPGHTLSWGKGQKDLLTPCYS
T1 sequence (P07686 315-556 partner limits assumed): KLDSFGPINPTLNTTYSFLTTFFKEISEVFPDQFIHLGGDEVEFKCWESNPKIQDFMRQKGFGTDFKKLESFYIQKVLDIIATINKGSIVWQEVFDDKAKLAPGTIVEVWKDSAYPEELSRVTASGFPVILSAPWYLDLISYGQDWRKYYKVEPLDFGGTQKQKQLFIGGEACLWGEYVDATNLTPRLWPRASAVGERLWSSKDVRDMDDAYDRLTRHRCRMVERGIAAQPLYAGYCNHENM
Source text: All cells used in this study were between the third and nineteenth passages.

[2] = biological target: T2, Streptomyces plicatus N-acetyl-β-hexosaminidase (SpHex) (Streptomyces plicatus, UniProt O85361); parameters: method as in PMID 11828466; conditions: with the same enzyme; read-out: Ki with SpHex (reference compound); cited from earlier work
T2 construct: made in house; host or cells: E. coli
T2 sequence (O85361 1-506): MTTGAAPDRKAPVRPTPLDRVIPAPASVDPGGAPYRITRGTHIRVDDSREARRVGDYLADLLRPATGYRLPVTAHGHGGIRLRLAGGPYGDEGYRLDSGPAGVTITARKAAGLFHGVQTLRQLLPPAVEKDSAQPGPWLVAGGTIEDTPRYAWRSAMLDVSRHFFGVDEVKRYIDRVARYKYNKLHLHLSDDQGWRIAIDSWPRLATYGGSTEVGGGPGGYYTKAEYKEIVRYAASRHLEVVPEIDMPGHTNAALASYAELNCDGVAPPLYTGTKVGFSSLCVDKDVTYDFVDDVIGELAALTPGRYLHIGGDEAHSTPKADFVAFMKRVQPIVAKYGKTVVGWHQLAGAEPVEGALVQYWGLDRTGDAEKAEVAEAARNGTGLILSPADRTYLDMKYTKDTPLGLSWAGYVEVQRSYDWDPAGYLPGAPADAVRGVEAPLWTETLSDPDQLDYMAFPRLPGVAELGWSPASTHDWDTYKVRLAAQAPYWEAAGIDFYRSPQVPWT

[3] = biological target: T2, Streptomyces plicatus N-acetyl-β-hexosaminidase (SpHex); experiment: SpHex kinetic inhibition assay (4-nitrophenyl N-acetyl-β-D-glucosaminide substrate, competitive model); type: biochemical
Protocol: Streptomyces plicatus N-acetyl-β-hexosaminidase, SpHex, was expressed and purified in E. coli as described previously. Kinetic studies were performed at 25 °C in the assay buffer (sodium phosphate (50 mM), sodium citrate (50 mM), NaCl (100 mM), BSA (2 mg/mL), pH = 6.0). The enzyme was incubated with different concentrations of the inhibitors for 2–5 min prior to the start of the reaction by addition of the substrate (4-nitrophenyl N-acetyl-β-D-glucosaminide) and the initial rates were measured by monitoring the increase in absorbance at 405 nm for three to five minutes using a microplate reader (Synergy H1, BioTek, VT, USA). Ki determinations were performed using two or three different substrate concentrations. For each one of these substrate concentrations a range of five to eight different inhibitor concentrations bracketing the ultimately determined Ki value were used. Dixon plots (1/rate vs [I]) were constructed to validate the use of a competitive inhibition model. The data were then fit to a competitive inhibition model using non-linear regression analysis with GraFit 7.0 (Erithacus Software, UK). Assays were done twice using enzyme concentrations of 0.3 nM and 0.03 nM respectively in order to check compliance with the assumptions of Michaelis Menten kinetics ([E] << [I]). In addition, for compound 25, the assays were done a third time with the concentration of enzyme lowered to 0.003 nM. In all cases, the Ki values were in good agreement.

Structure (SMILES)	IC50 [1] [nM]	Ki [2] [nM]	Ki ([3]; 25 °C, pH 6.0, competitive inhibition model, read-out: Ki-values with SpHex) [nM]	Ki [3] [nM]
CC(=O)NC1CNC(CO)C(O)C1O (centres unmarked) [compound 1, 2-acetamido-1,2-dideoxynojirimycin, reference compound]	31000	80000	–	–
CC(=O)NC1C(N)C(CO)C(O)C1O (centres unmarked) [compound 20]	–	–	0.7	–
CCCCCCNC1C(CO)C(O)C(O)C1NC(C)=O (centres unmarked) [compound 21]	880	–	–	0.6
COC(=O)CCCCCNC1C(CO)C(O)C(O)C1NC(C)=O [compound 22, (1S,2R,3S,4R,5R)-N-(Methoxycarbonyl)pentyl-3-acetamido-4-amino-5-hydroxymethyl-cyclopentanetriol]	–	–	–	0.7
CC(=O)NC1C(O)C(O)C(CO)C1NCCCCCCNS(=O)(=O)c1cccc2c(N(C)C)cccc12 [compound 25, (1S,2R,3S,4R,5R)-N-(6-Dansylamino)hexyl-3-acetamido-4-amino-5-hydroxymethyl-cyclopentanetriol]	300	–	–	0.06
